We go through 5 compounds from patent US12319651B2, “Crystalline forms and methods of producing crystalline forms of a compound” (priority 2019, dated 2025).

By solubility is commonly meant the concentration that dissolves in the medium under given conditions.

Bounds are passed on as bounds.

Data set [1] in a line: Dynamic vapor sorption (moisture sorption/desorption). In kind it is physicochemical. As to conditions: for Hygroscopicity: automated vapor sorption/desorption analysis, 5% to 95% RH. The protocol:
Moisture sorption/desorption data were collected on a VTI SGA-100 Vapor Sorption Analyzer. Sorption and desorption data were collected over a range of 5% to 95% relative humidity (RH) at 10% RH intervals under an nitrogen purge. Samples were not dried prior to analysis. Equilibrium criteria used for analysis were less than 0.0100% weight change in 5 minutes, with a maximum equilibration time of 3 hours if the weight criterion was not met. Data were not corrected for the initial moisture content of the samples. NaCl and PVP were used as calibration standards.

The format of data set [2] is physicochemical. How it is done:
The starting crystal Form was heated to 120° C. and the resulting material was analyzed by XRPD.
The XRPD results of crystalline Form E (FIG. 2) show good crystallinity. […] (FIG. 6). […] The XRPD results of crystalline Forms E+C (FIG. 3) show good crystallinity. Differential scanning calorimetry results for crystalline Forms E+C were very similar to that of Form E (FIG. 7). […] Form conversion was complete by 125° C. in the solid state.

Data set [3] can be described thus: Interconversion slurries of crystal forms. In kind it is physicochemical. To be noted: for Relationship of forms C and E: from DSC data and interconversion results, transition temperature less than ambient. An excerpt: Crystal forms of the compound of Formula (I) were weighed out in approximately equal amounts and combined as desired. Aliquots of saturated solutions of compound in various solvents were filtered (0.2-μm nylon filter) into vials containing solid mixtures such that undissolved solids were present. The mixture was then agitated by either loading it onto an orbit shaker or adding a cross-shaped stir bar and allowing the mixture to stir in a sealed vial at stated conditions. The solids were isolated by vacuum filtration and analyzed.
Interconversion slurries were conducted as individual pairings between the E+C mixture and Form E material and between forms C and E. The experiments were carried out in cyclohexane and acetone:water 20:80, at room temperature for 7 days. Additional slurries were set up in toluene at room temperature for 1 day and at approximately 5° C. for 2 days.
A second set of interconversion slurries was conducted in which all unique patterns were slurried together at 50° C. in cyclohexane and ethanol:water 50:50. […]

Data set [4] in a line: Measurement of the approximate solubility (visual dissolution in solvent aliquots). In kind it is physicochemical. To be noted: thermodynamic from solid. The protocol: Aliquots of various solvents were added to measured amounts of compound with agitation (typically sonication) at ambient or elevated temperatures until complete dissolution was achieved, as judged by visual observation.
The approximate solubility at ambient temperature must be known in order to carry out systematic crystallization experiments.

For the compound `N#Cc1ccc(N2CCC[C@@H]2C(O)C(F)(F)F)cc1C(F)(F)F` (stereo partly drawn) [Form E + C], the Hygroscopicity result in data set [1] (listed as E+C mixture) was “slightly hygroscopic”. Moreover, in data set [2] (heated to 120° C.), the “XRPD Result after heating” value was “Form C”.

Turning to `N#Cc1ccc(N2CCC[C@@H]2C(O)C(F)(F)F)cc1C(F)(F)F` (stereo partly drawn) [Form B], in data set [1], the Hydrate formation entry is reported as “does not show any evidence of hydrate formation” and the Stability over humidity result is recorded as “stable over a wide range of humidity”. For the same compound, in data set [2], the “Temperature of likely form transformation upon heating” value is “approximately 150 °C”.

With `N#Cc1ccc(N2CCC[C@@H]2C(O)C(F)(F)F)cc1C(F)(F)F` (stereo partly drawn) [Form C], in data set [1], the Hydrate formation entry was “does not show any evidence of hydrate formation”, the Stability over humidity entry is “stable over a wide range of humidity” and the Hygroscopicity result was “non-hygroscopic”. Besides, in data set [1] (DVS, FIG. 9), the Water uptake result is reported as “negligible water uptake”. Moreover, the “Most stable form in slurry of all forms” value in data set [3] (50° C., 7 days, cyclohexane and ethanol:water 50:50) is on record as “most stable form”. The “Thermodynamic stability among crystal forms” value in data set [3] (cyclohexane, acetone:water 20:80, toluene at ambient temperature, ethanol:water 50:50 at approximately 50° C.) was “most thermodynamically stable form”. Moreover, the “Relationship of forms C and E” value in data set [3] was “enantiotropic”. In data set [2] (heating to 150° C. and cooling down to ambient temperature), the “Form stability upon heating and cooling” value is “remained stable”. Moreover, the “Relative thermodynamic stability from heating study” value in data set [2] (starting crystal form heated to 120° C., XRPD) was “thermodynamically more stable crystal form”.

Take `N#Cc1ccc(N2CCC[C@@H]2C(O)C(F)(F)F)cc1C(F)(F)F` (stereo partly drawn) [Compound of Formula (I)]: the solubility in data set [4] (aqueous with cosolvent or surfactant or cyclodextrin, ambient, 1,4-dioxane/water 20:80 v/v) was under 2 mg/mL; in data set [4] (aqueous with cosolvent or surfactant or cyclodextrin, ambient, 1-propanol/water 20:80 v/v), under 2 mg/mL; in data set [4] (aqueous with cosolvent or surfactant or cyclodextrin, ambient, 2,2,2-trifluoroethanol/water 20:80 v/v), under 2 mg/mL; in data set [4] (aqueous with cosolvent or surfactant or cyclodextrin, ambient, acetone/water 20:80 v/v), under 2 mg/mL; in data set [4] (aqueous with cosolvent or surfactant or cyclodextrin, ambient, acetone/water 50:50 v/v), 9 mg/mL; in data set [4] (aqueous with cosolvent or surfactant or cyclodextrin, ambient, acetonitrile/water 20:80 v/v), under 2 mg/mL. Also, the solubility in data set [4] (aqueous with cosolvent or surfactant or cyclodextrin, ambient, ethanol/water 20:80 v/v) was under 2 mg/mL; in data set [4] (aqueous with cosolvent or surfactant or cyclodextrin, ambient, hexafluoroisopropanol/water 20:80 v/v) it was under 2 mg/mL; in data set [4] (aqueous with cosolvent or surfactant or cyclodextrin, ambient, isopropanol/water 20:80 v/v), under 2 mg/mL; in data set [4] (aqueous with cosolvent or surfactant or cyclodextrin, ambient, methanol/water 20:80 v/v), under 2 mg/mL; in data set [4] (aqueous with cosolvent or surfactant or cyclodextrin, ambient, tetrahydrofuran/water 20:80 v/v), under 2 mg/mL; in data set [4] (organic solvent or mixture, ambient, 1,4-dioxane) it was over 111 mg/mL. Moreover, the solubility is 37 mg/mL in data set [4] (organic solvent or mixture, ambient, 1-butanol); 55 mg/mL in data set [4] (organic solvent or mixture, ambient, 1-propanol); 51 mg/mL in data set [4] (organic solvent or mixture, ambient, 2,2,2-trifluoroethanol); over 107 mg/mL in data set [4] (organic solvent or mixture, ambient, 2-butanone); over 112 mg/mL in data set [4] (organic solvent or mixture, ambient, acetone); over 110 mg/mL in data set [4] (organic solvent or mixture, ambient, acetonitrile). Also, the solubility in data set [4] (organic solvent or mixture, ambient, chloroform) is 37 mg/mL; in data set [4] (organic solvent or mixture, ambient, cyclohexane), under 2 mg/mL; in data set [4] (organic solvent or mixture, ambient, dichloromethane), 37 mg/mL; in data set [4] (organic solvent or mixture, ambient, diethyl ether), 58 mg/mL; in data set [4] (organic solvent or mixture, ambient, ethanol) it was over 104 mg/mL; in data set [4] (organic solvent or mixture, ambient, ethyl acetate) it was over 108 mg/mL. Moreover, the solubility in data set [4] (organic solvent or mixture, ambient, hexafluoroisopropanol) was over 106 mg/mL; in data set [4] (organic solvent or mixture, ambient, hexanes) it was under 2 mg/mL; in data set [4] (organic solvent or mixture, ambient, isopropanol), over 102 mg/mL; in data set [4] (organic solvent or mixture, ambient, isopropyl ether), 55 mg/mL; in data set [4] (organic solvent or mixture, ambient, methanol), over 116 mg/mL; in data set [4] (organic solvent or mixture, ambient, methyl isobutyl ketone), over 100 mg/mL. Further, the solubility in data set [4] (organic solvent or mixture, ambient, tert-butyl methyl ether) was over 111 mg/mL; in data set [4] (organic solvent or mixture, ambient, tetrahydrofuran), over 102 mg/mL; in data set [4] (organic solvent or mixture, ambient, toluene), 15 mg/mL; in data set [4] (ambient, water), under 2 mg/mL.

As for `N#Cc1ccc(N2CCC[C@@H]2C(O)C(F)(F)F)cc1C(F)(F)F` (stereo partly drawn) [Form E], in data set [1], the Stability over humidity entry is “stable over a wide range of humidity” and the Hygroscopicity entry is recorded as “slightly hygroscopic”. Moreover, the “Relationship of forms C and E” value in data set [3] is “enantiotropic”. Further, the “Most stable form in slurry” value in data set [3] (toluene at approximately 5° C.) is given as “most stable form”. In data set [2] (VT-XRPD, solid state), the “Temperature at which form conversion was complete” value is at most 125 °C. The “Temperature of conversion to Form C upon heating” value in data set [2] (VT-XRPD, mixture of forms E+C observed at this temperature) is 115 °C.
